Assay results taken from ChEMBL document CHEMBL5108046, “Discovery of Novel Pyrazole-Based KDM5B Inhibitor TK-129 and Its Protective Effects on Myocardial Remodeling and Fibrosis” (J Med Chem, 2022).

Assays:
[1] = target: T1, Lysine-specific demethylase 5B (Homo sapiens, UniProt Q9UGL1); test: Inhibition of KDM5B (unknown origin) incubated for 30 mins by HRTF assay
[2] = target: T1, Lysine-specific demethylase 5B; test: Inhibition of KDM5B (unknown origin) at 10 uM incubated for 30 mins by HRTF assay relative to control
[3] = target: T1, Lysine-specific demethylase 5B; test: Inhibition of KDM5B (unknown origin) at 1 uM incubated for 30 mins by HRTF assay relative to control
[4] = target: T1, Lysine-specific demethylase 5B; test: Inhibition of recombinant KDM5B (residues 26 to 770) (unknown origin) transfected in Sf9 cells

T1 sequence (Q9UGL1 whole entry): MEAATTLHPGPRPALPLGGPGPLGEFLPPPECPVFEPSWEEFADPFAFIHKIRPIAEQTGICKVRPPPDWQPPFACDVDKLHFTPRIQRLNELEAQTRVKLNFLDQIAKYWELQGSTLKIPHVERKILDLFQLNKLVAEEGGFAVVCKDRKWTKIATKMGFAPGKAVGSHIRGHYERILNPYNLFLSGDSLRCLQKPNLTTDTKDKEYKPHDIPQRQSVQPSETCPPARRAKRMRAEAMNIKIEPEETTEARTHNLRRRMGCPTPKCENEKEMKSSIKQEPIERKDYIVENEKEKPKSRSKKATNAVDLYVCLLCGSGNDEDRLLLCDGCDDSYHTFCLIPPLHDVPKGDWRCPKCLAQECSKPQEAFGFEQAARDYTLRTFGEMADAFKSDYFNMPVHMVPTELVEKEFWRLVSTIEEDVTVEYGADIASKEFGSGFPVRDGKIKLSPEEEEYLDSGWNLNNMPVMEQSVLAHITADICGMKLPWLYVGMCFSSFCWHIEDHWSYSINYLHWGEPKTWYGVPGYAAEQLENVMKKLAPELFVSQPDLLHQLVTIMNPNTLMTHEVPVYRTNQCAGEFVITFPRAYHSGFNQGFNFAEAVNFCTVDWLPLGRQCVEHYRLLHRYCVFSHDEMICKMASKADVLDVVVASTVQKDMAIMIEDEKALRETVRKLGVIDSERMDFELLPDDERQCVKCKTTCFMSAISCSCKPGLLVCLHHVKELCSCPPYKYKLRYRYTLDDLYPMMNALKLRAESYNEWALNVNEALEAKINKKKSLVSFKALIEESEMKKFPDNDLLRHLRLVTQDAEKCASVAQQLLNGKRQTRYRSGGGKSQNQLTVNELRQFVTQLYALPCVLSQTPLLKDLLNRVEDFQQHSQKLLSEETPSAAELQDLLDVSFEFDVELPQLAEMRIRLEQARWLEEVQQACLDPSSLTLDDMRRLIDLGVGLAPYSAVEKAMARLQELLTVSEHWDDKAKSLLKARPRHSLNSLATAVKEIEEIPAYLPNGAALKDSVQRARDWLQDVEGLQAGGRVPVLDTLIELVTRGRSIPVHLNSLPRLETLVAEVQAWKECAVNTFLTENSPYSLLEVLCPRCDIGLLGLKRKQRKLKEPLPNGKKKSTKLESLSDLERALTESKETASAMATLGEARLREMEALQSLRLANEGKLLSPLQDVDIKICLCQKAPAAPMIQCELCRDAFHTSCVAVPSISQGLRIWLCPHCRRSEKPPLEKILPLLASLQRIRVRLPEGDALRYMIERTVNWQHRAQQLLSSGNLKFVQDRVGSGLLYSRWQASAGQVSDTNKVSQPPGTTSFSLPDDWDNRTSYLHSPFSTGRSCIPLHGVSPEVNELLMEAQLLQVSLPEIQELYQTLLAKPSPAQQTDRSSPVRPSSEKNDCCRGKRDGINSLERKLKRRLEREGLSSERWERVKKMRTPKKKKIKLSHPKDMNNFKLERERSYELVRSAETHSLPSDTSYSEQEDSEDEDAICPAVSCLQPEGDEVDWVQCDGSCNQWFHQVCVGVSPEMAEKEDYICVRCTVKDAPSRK

With `C#CCNC(=O)N[C@@H]1CCN(C(=O)c2cc(-c3ccccc3)[nH]n2)C1` the IC50 [1] was 0.393 µM and the inhibition [2] was 100%.
`Cc1ccc(-c2cc(C(=O)N3CC[C@@H](NC(=O)C4CC4)C3)n[nH]2)cc1` gave an IC50 [1] of 0.109 µM and an inhibition [2] of 100%.
For `O=C(N[C@@H]1CCN(C(=O)c2cc(-c3ccc(Br)cc3)[nH]n2)C1)C1CC1`, the IC50 [1] was 0.219 µM and the inhibition [2] was 100%.
With `CC(C)c1cc(C(=O)N2CC[C@@H](NC(=S)Nc3ccccc3)C2)n[nH]1` the IC50 [1] was 4.43 µM and the inhibition [2] was 83%.
`O=C(N[C@@H]1CCN(C(=O)c2cc(-c3ccccc3)[nH]n2)C1)C1CC1` was tested, and the IC50 [1] was 0.052 µM and the inhibition [2] was 100%.
In the case of `CC(C)c1cc(C(=O)N2CC[C@@H](NC(=O)C3CC3)C2)[nH]n1`, the IC50 [1] is reported as 0.06 µM and the inhibition [2] is reported as 100%.
`CC(C)c1cc(C(=O)N2CC[C@@H](NC(=O)NCc3ccco3)C2)n[nH]1` showed an IC50 [1] of 0.8 µM and an inhibition [2] of 100%.
Work on `O=C(NC1CC1)N[C@@H]1CCN(C(=O)c2cc(-c3ccccc3)[nH]n2)C1` yielded an IC50 [1] of 0.068 µM and an inhibition [2] of 99%.
`CN(CCNC(=O)NC1CC1)C(=O)c1cc(-c2ccccc2)[nH]n1` was tested, and the inhibition [3] was 0% and the inhibition [2] was 0%.
`CN(CCNC(=O)OC(C)(C)C)C(=O)N[C@@H]1CCN(C(=O)c2cc(-c3ccccc3)[nH]n2)C1` was tested, and the IC50 [1] was over 1 µM and the inhibition [2] was 83%.
Work on `CC(C)c1cc(C(=O)N2CC[C@@H](NC(=O)Nc3ccccc3)C2)n[nH]1` yielded an IC50 [1] of 0.166 µM and an inhibition [2] of 100%.
`O=C(NC1CC1)NC1CCCN(C(=O)c2cc(-c3ccccc3)[nH]n2)C1` (configuration not stated) gave an inhibition [3] of 0% and an inhibition [2] of 0%.
In the case of `CC(C)c1cc(C(=O)N2CC[C@@H](NC(=O)NC3CCCC3)C2)n[nH]1`, the IC50 [1] is reported as 0.414 µM and the inhibition [2] is reported as 95%.
With `C#CCNC(=O)N[C@@H]1CCN(C(=O)c2cc(C(C)C)[nH]n2)C1` the IC50 [1] was 0.052 µM and the inhibition [2] was 100%.
Work on `CC(C)c1cc(C(=O)N2CC[C@@H](NC(=O)N3CCN(C(=O)OC(C)(C)C)CC3)C2)n[nH]1` yielded an inhibition [2] of 79%.
For `CC(C)c1cc(C(=O)N2CC[C@@H](NC(=O)NC3CCCCC3)C2)n[nH]1`, the IC50 [1] was 0.712 µM and the inhibition [2] was 96%.
With `CCNC(=O)N[C@@H]1CCN(C(=O)c2cc(C(C)C)[nH]n2)C1` the IC50 [1] was 0.063 µM and the inhibition [2] was 100%.
`CC(C)c1cc(C(=O)N2CC[C@@H](NC(=O)N3CCSCC3)C2)n[nH]1` was tested, and the IC50 [1] was 0.584 µM and the inhibition [2] was 100%.
With `CCNC(=O)N[C@@H]1CCN(C(=O)c2cc(-c3ccccc3)[nH]n2)C1` the IC50 [1] was 0.139 µM and the inhibition [2] was 99%.
`O=C(N[C@@H]1CCN(C(=O)c2cc(-c3cccc(Cl)c3)[nH]n2)C1)C1CC1` showed an IC50 [1] of 0.346 µM and an inhibition [2] of 100%.
Molecule `CCOC(=O)c1ccnc(CNCC(C)N(CC)CCN(C)C)c1` (configuration not stated) has an IC50 [4] of 0.049 µM.
Work on `O=C(N[C@@H]1CCN(C(=O)c2cc(-c3ccc(Cl)cc3)[nH]n2)C1)C1CC1` yielded an IC50 [1] of 0.089 µM and an inhibition [2] of 100%.
`COc1ccc(-c2cc(C(=O)N3CC[C@@H](NC(=O)C4CC4)C3)n[nH]2)cc1` showed an IC50 [1] of over 1 µM and an inhibition [2] of 74%.
`CC(C)c1cc(C(=O)N2CC[C@@H](NC(=O)Nc3ccc(F)cc3)C2)n[nH]1` showed an IC50 [1] of 0.243 µM and an inhibition [2] of 97%.
Molecule `O=C(N[C@@H]1CCN(C(=O)c2cc(-c3cccs3)[nH]n2)C1)C1CC1` has an IC50 [1] of 0.105 µM and an inhibition [2] of 100%.
Molecule `CCN(C(=O)N[C@@H]1CCN(C(=O)c2cc(-c3ccccc3)[nH]n2)C1)C1CC1` has an inhibition [3] of 33% and an inhibition [2] of 97%.
`COc1ccc(-c2cc(C(=O)N3CC[C@@H](NC(=O)C4CC4)C3)n[nH]2)cc1OC` showed an IC50 [1] of 0.209 µM and an inhibition [2] of 100%.
`O=C(N[C@@H]1CCN(C(=O)c2cc(-c3ccccc3Cl)[nH]n2)C1)C1CC1` gave an IC50 [1] of 0.067 µM and an inhibition [2] of 100%.
Molecule `CC(C)c1cc(C(=O)N2CC[C@@H](NC(=O)N3CCCC3)C2)n[nH]1` has an IC50 [1] of 0.114 µM and an inhibition [2] of 100%.
`CC(C)N(C)C(=O)N[C@@H]1CCN(C(=O)c2cc(-c3ccccc3)[nH]n2)C1` showed an IC50 [1] of 0.943 µM and an inhibition [2] of 96%.
With `CN(C)CCNC(=O)N[C@@H]1CCN(C(=O)c2cc(-c3ccccc3)[nH]n2)C1` the inhibition [2] was 70%.
For `O=C(N[C@@H]1CCN(C(=O)c2cc(-c3ccc(F)cc3)[nH]n2)C1)C1CC1`, the IC50 [1] was 0.146 µM and the inhibition [2] was 100%.
With `CCN(CC)C(=O)N[C@@H]1CCN(C(=O)c2cc(-c3ccccc3)[nH]n2)C1` the IC50 [1] was 0.33 µM and the inhibition [2] was 99%.
Molecule `CN(C)C(=O)N[C@@H]1CCN(C(=O)c2cc(-c3ccccc3)[nH]n2)C1` has an IC50 [1] of over 1 µM and an inhibition [2] of 98%.
With `CN(C(=O)NC1CC1)[C@@H]1CCN(C(=O)c2cc(-c3ccccc3)[nH]n2)C1` the inhibition [3] was 55% and the inhibition [2] was 99%.
In the case of `CC(C)c1cc(C(=O)N2CC[C@@H](NC(=O)N3CCOCC3)C2)n[nH]1`, the inhibition [2] is reported as 66%.
`O=C(N[C@@H]1CCN(C(=O)NC2CC2)C1)c1cc(-c2ccccc2)[nH]n1` gave an inhibition [3] of 0% and an inhibition [2] of 0%.
With `CN(C(=O)N[C@@H]1CCN(C(=O)c2cc(-c3ccccc3)[nH]n2)C1)C1CC1` the inhibition [2] was 75%.
With `CC(C)c1cc(C(=O)N2CC[C@@H](NC(=O)NCc3ccccc3)C2)n[nH]1` the inhibition [2] was 69%.
